Key:
[1] = tested on: osteoblast differentiation of mouse bone marrow cells; experiment: Differentiation of osteoblast: ALP-positive osteoblast nodules in mouse bone marrow cell culture; assay type: cell-based; settings: final concentration of 5 μM and 10 μM; p<0.05 or p<0.01; FIG. 1
Protocol: Mouse bone marrow cells were seeded in each well of a microplate containing 0.5 mL Eagle minimum essential medium a modified type (α-MEM) (manufactured by MP Biomedicals INC.) at 2.5×10^6 cells/well, and cultured at 37° C., carbon dioxide concentration=5(v/v)%. […] On days 1 and 4 of culture, a differentiation induction reagent (0.2 mM ascorbic acid, 2.5 mM β-glycerophosphoric acid, 10 nM dexamethasone) was added to the following final concentrations. At 6 days from the culture, the cells were stained with alkaline phosphatase (ALP), observed with a microscope (inverted culture microscope “CK40”, manufactured by Olympus Corporation, magnification=40×), and the osteoblast nodule stained with ALP, i.e., cell nodule formed by differentiated osteoblast, was detected.

[2] = tested on: osteoclast differentiation of mouse bone marrow cells; experiment: Differentiation of osteoclast: TRAP-positive osteoclasts in mouse bone marrow cell culture; assay type: cell-based; settings: FIG. 2
Protocol: Mouse bone marrow cells were seeded in each well of a microplate containing 0.5 mL α-MEM (manufactured by MP Biomedicals INC.) at 3.5×10^6 cells/well, and cultured at 37° C., carbon dioxide concentration=5(v/v)%. […] On days 1 and 4 of culture, a differentiation induction reagent (calcitriol) was added to a final concentration of 10 nM. At 6 days from the culture, the cells were stained with tartaric acid resistance acidic phosphatase (TRAP), observed with a microscope (inverted culture microscope “CK40”, manufactured by Olympus Corporation, magnification=40×), and the cells stained with TRAP, i.e., differentiated osteoclasts, were detected.

O=C1CC(c2ccc(O)c(O)c2)Oc2cc(OC3OC(CO)C(O)C(O)C3O)ccc21 [F2, 3′,4′,7-trihydroxyflavanone 7-O-β-D-glucopyranoside]
number of ALP-positive osteoblast nodules versus control [1]: significant difference from the control
final concentration at which a concentration-dependent differentiation accelerating action on osteoclast was exhibited ([2]; TRAP-positive osteoclast number per well, 6 days of culture): ≥ 2.5 µM
TRAP-positive osteoclast number versus control ([2]; final concentration of 5 μM and 10 μM): significant difference of p<0.05

From US11517603B2, “Bone remodeling accelerator” (HOKURIKU UNIVERSITY, priority 2017, dated 2022)
